We go through 13 molecules from ChEMBL document CHEMBL1201862, “PubChem BioAssay data set” (2004).

The structures appear in SMILES notation.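 Five concentrations, 48 hours, 96-well plates. At the GI50, growth is halved.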 Activity calls are given as the source filed them. Cut-off read from the data, not from the text of the source: active = GI50 up to about 1.1 µM and inactive = higher.

Test systems include OVCAR-3; HL-60; SK-MEL-5; TK-10; NCI-H226; SNB-19; HOP-62; LOX IMVI; SK-OV-3; EKVX; OVCAR-8; IGROV-1; SF-539; KM12; SN12C; NCI-H522.
Holding throughout (experiment): NCI anticancer screen, dose series, 48 h

Take `Cc1c(/C=C2\CC/C(=C\c3[nH]c(C(=O)OC(C)(C)C)c(C)c3C)C2=O)[nH]c(C(=O)OC(C)(C)C)c1C`: the GI50 in the test with OVCAR-3, in the test with HL-60, with SK-MEL-5, with TK-10, with NCI-H226 and in the test on SNB-19 was > 100 µM (inactive) in each case. Moreover, the GI50 with HOP-62, in the test on LOX IMVI, in the test with SK-OV-3, in the test with EKVX, in the test with OVCAR-8 and in the test with IGROV-1 was > 100 µM (inactive) throughout. Moreover, the GI50 with SF-539, in the test on KM12, in the test on SN12C and in the test with NCI-H522 was > 100 µM (inactive) in each case.

On to `COC1(OC)CC2C(=O)N(Cc3ccccc3)C1C(S(=O)(=O)c1ccccc1)C2S(=O)(=O)c1ccccc1` (stereo unspecified), for which the GI50 in the test on OVCAR-3 was 10.9 µM (inactive); with HL-60 it was 3.87 µM (inactive); in the test on SK-MEL-5, 18.4 µM (inactive); in the test with TK-10, 15.2 µM (inactive); with NCI-H226, 19.7 µM (inactive); in the test with SNB-19 it was > 100 µM (inactive). For the same molecule, the GI50 with HOP-62 was > 100 µM (inactive); in the test with LOX IMVI it was 10.2 µM (inactive); in the test with SK-OV-3, 30 µM (inactive); in the test on OVCAR-8 it was 8.07 µM (inactive); in the test with IGROV-1, 17.2 µM (inactive); with SF-539 it was 14 µM (inactive). For the same molecule, the GI50 with KM12 was 16.4 µM (inactive); in the test on SN12C it was 12.7 µM (inactive); in the test with NCI-H522 it was 2.02 µM (inactive).

Consider `c1ccc2c(CNCCCCCCCCCCCCNCc3cccc4ccccc34)cccc2c1`, for which the GI50 with OVCAR-3 is 1.85 µM (inactive); in the test on HL-60, 1.47 µM (inactive); in the test with SK-MEL-5, 1.83 µM (inactive); in the test with TK-10 it was 2.14 µM (inactive); in the test on NCI-H226 it was 2.39 µM (inactive); in the test with HOP-62, 2.14 µM (inactive). The GI50 with LOX IMVI was 1.22 µM (inactive); in the test with SK-OV-3, 13.3 µM (inactive); in the test on EKVX, 3.1 µM (inactive); with OVCAR-8, 1.63 µM (inactive); with IGROV-1, 1.84 µM (inactive); in the test with SF-539, 1.58 µM (inactive). For the same molecule, the values for the GI50 in the test with KM12, with SN12C and in the test on NCI-H522 were 1.61 µM (inactive), 3.53 µM (inactive) and 1.88 µM (inactive), respectively.

`CC1(C)CC(c2c[nH]c3ccccc23)=CC2=Nc3ccccc3C21O` (stereo unspecified): the GI50 is 33.3 µM (inactive) in the test on OVCAR-3; > 100 µM (inactive) in the test on HL-60; 36.4 µM (inactive) in the test on SK-MEL-5; > 100 µM (inactive) in the test with TK-10; 15.2 µM (inactive) with NCI-H226; 65.2 µM (inactive) with SNB-19. Moreover, the GI50 is > 100 µM (inactive) in the test with HOP-62; > 100 µM (inactive) in the test with LOX IMVI; > 100 µM (inactive) with SK-OV-3; 63.1 µM (inactive) in the test on EKVX; 27 µM (inactive) in the test on OVCAR-8; > 100 µM (inactive) in the test with IGROV-1. The GI50 with SF-539 is 93.1 µM (inactive); with KM12, > 100 µM (inactive); with SN12C, > 100 µM (inactive); in the test with NCI-H522, 34.8 µM (inactive).

Turning to `COC(OC)c1cccc2c1C(=O)CCC1(CC2)OCCCCO1`, the GI50 with OVCAR-3, with HL-60, in the test on SK-MEL-5, with TK-10, in the test with NCI-H226 and with SNB-19 was > 100 µM (inactive) in each case. For the same molecule, the GI50 in the test with HOP-62, with LOX IMVI, in the test with SK-OV-3, in the test with OVCAR-8, in the test with IGROV-1 and in the test with SF-539 was > 100 µM (inactive) throughout. Moreover, the GI50 in the test with KM12, in the test on SN12C and in the test on NCI-H522 was > 100 µM (inactive) each time.

As for `CC(=O)NNc1nc(C)c(C(=O)NNC(=O)C(=O)Nc2ccc(Cl)cc2Cl)s1`, the GI50 is 19.6 µM (inactive) in the test on OVCAR-3; 37.4 µM (inactive) with HL-60; 30.5 µM (inactive) with SK-MEL-5; 74.3 µM (inactive) in the test with TK-10; 34.2 µM (inactive) in the test on NCI-H226; 42.6 µM (inactive) in the test on SNB-19. The GI50 in the test with HOP-62 is 38.5 µM (inactive); in the test on LOX IMVI it was 33.7 µM (inactive); in the test with SK-OV-3, 31.9 µM (inactive); in the test on EKVX, 40.1 µM (inactive); with OVCAR-8 it was 40.2 µM (inactive); with IGROV-1 it was 63.5 µM (inactive). The GI50 with SF-539 was 30.1 µM (inactive); in the test with KM12, 53.7 µM (inactive); with SN12C it was 45.6 µM (inactive); with NCI-H522 it was 19.5 µM (inactive).

`Cc1c(C(=O)C/C(=N/NC(=O)c2ccccc2O)C(=O)Nc2ccccc2C(C)C)[n+]([O-])c2ccccc2[n+]1[O-]`: the GI50 was 25.8 µM (inactive) with OVCAR-3; 3.01 µM (inactive) in the test on HL-60; 43 µM (inactive) in the test on SK-MEL-5; > 100 µM (inactive) in the test on TK-10; > 100 µM (inactive) in the test on NCI-H226; > 100 µM (inactive) in the test with SNB-19. For the same molecule, the GI50 is > 100 µM (inactive) in the test on HOP-62; 32.1 µM (inactive) with LOX IMVI; > 100 µM (inactive) with SK-OV-3; 47.4 µM (inactive) in the test on EKVX; 29.6 µM (inactive) with OVCAR-8; 28.3 µM (inactive) in the test on IGROV-1. Further, the GI50 is 40.6 µM (inactive) with SF-539, 53.6 µM (inactive) in the test with KM12, 43.8 µM (inactive) in the test on SN12C and 20.9 µM (inactive) in the test on NCI-H522.

Take `COc1cc([C@@H]2c3cc4c(cc3[C@@H](NC(=O)c3ccc(OC(C)=O)cc3)C3COC(=O)[C@@H]32)OCO4)cc(OC)c1O` (stereo partly specified): the GI50 in the test with OVCAR-3 was 4.84 µM (inactive); with HL-60 it was 0.153 µM (active); with SK-MEL-5, 1.99 µM (inactive); in the test with TK-10, 10.7 µM (inactive); in the test with NCI-H226 it was 0.798 µM (active); with SNB-19 it was 2.16 µM (inactive). Further, the GI50 with HOP-62 is 0.714 µM (active); in the test with LOX IMVI, 1.39 µM (inactive); in the test with SK-OV-3, 2.47 µM (inactive); in the test on EKVX, 4.18 µM (inactive); in the test with OVCAR-8 it was 2.48 µM (inactive); in the test with IGROV-1, 0.258 µM (active). Also, the GI50 in the test on SF-539 was 0.406 µM (active); in the test on KM12 it was 2.66 µM (inactive); with SN12C it was 1 µM (active); with NCI-H522 it was 1.73 µM (inactive).

Take `Cc1cccc(N2C(=O)C(=O)C(c3nc4ccccc4s3)C(=O)C2=O)c1C`: the GI50 with OVCAR-3 is > 100 µM (inactive); in the test with HL-60 it was < 0.01 µM (active); in the test on SK-MEL-5, > 100 µM (inactive); with TK-10, > 100 µM (inactive); in the test on NCI-H226, > 100 µM (inactive); with SNB-19 it was > 100 µM (inactive). The GI50 in the test with HOP-62, in the test on LOX IMVI, in the test with SK-OV-3, in the test with EKVX, with OVCAR-8 and in the test with IGROV-1 was > 100 µM (inactive) each time. Besides, the GI50 in the test on SF-539, in the test on SN12C and in the test with NCI-H522 was > 100 µM (inactive) in each case.

With `O=C1NC(=O)C2C(=O)NC(=O)C1C2c1c(Cl)cccc1Cl` (stereo unspecified), the GI50 with OVCAR-3 is > 100 µM (inactive); in the test with HL-60, > 44.4 µM (inactive); with SK-MEL-5, > 100 µM (inactive); in the test on TK-10, > 100 µM (inactive); with NCI-H226, > 100 µM (inactive); in the test with SNB-19, > 100 µM (inactive). The GI50 with HOP-62 was > 100 µM (inactive); in the test on LOX IMVI it was > 43 µM (inactive); in the test with SK-OV-3, > 100 µM (inactive); in the test on EKVX, > 100 µM (inactive); in the test on OVCAR-8 it was > 66.2 µM (inactive); in the test with IGROV-1 it was > 100 µM (inactive). For the same molecule, the GI50 in the test with SF-539 was > 88.3 µM (inactive); in the test on KM12 it was > 69.2 µM (inactive); in the test on SN12C, > 83.6 µM (inactive); in the test with NCI-H522, > 77.1 µM (inactive).

As to `Cc1c2ccnc(O)c2cc2c(=O)c3cnccc3[nH]c12`, the GI50 in the test on OVCAR-3, in the test on HL-60, in the test on SK-MEL-5, in the test on TK-10, in the test on NCI-H226 and in the test on SNB-19 was > 100 µM (inactive) each time. The GI50 in the test on HOP-62, in the test with LOX IMVI, in the test on SK-OV-3, in the test on EKVX, in the test with OVCAR-8 and with IGROV-1 was > 100 µM (inactive) each time. Also, the GI50 in the test on KM12, in the test with SN12C and in the test on NCI-H522 was > 100 µM (inactive) each time.

As for `O=C(Nc1ccccc1)Oc1ccccc1C1CCCCC1`, the GI50 was 12.7 µM (inactive) in the test on OVCAR-3; 9.71 µM (inactive) in the test on HL-60; 13.5 µM (inactive) in the test on SK-MEL-5; 28.8 µM (inactive) with TK-10; 13.2 µM (inactive) in the test on NCI-H226; 63.1 µM (inactive) in the test with SNB-19. The GI50 in the test with HOP-62 was 18.1 µM (inactive); in the test with LOX IMVI, 13.8 µM (inactive); in the test with SK-OV-3 it was 44.5 µM (inactive); in the test with EKVX, 20.1 µM (inactive); with OVCAR-8, 29.6 µM (inactive); with IGROV-1, 24.8 µM (inactive). Also, the GI50 is 25.8 µM (inactive) in the test on SF-539, 26.8 µM (inactive) with KM12 and 18.9 µM (inactive) in the test on SN12C.

On to `CN(C)CC1CCCC/C1=N\OC(=O)c1ccccc1` (stereo unspecified), for which the GI50 in the test with OVCAR-3, in the test on HL-60, in the test with SK-MEL-5, with TK-10, in the test on NCI-H226 and in the test with HOP-62 was > 100 µM (inactive) throughout. The GI50 with LOX IMVI, with SK-OV-3, with EKVX, in the test with OVCAR-8, with IGROV-1 and in the test with SF-539 was > 100 µM (inactive) throughout. Moreover, the GI50 in the test on KM12, in the test with SN12C and in the test on NCI-H522 was > 100 µM (inactive) each time.
